Assay results reported in patent US20230101747A1 (Schrödinger, Inc., priority 2019, published 2023).
pIC50: −log10 of the molar value. Read-outs that look alike come from different tables or passages of the source.

Biological target: T1, Full length human CDC7 protein co-expressed with DBF4 (Homo sapiens, UniProt O00311)
T1 construct: Full length human CDC7 protein co-expressed with DBF4; purchased SignalChem (China)
Test: CDC7 kinase biochemical assay (ADP-Glo, PDKtide substrate)
Details: 10 uM PDKtide, 4 h
Description: CDC7 Kinase Biochemical Assay Protocol:
Full length human CDC7 protein co-expressed with DBF4 was purchased from SignalChem (China). CDC7 kinase activity was determined with PDKtide (SignalChem) as a substrate and by measuring ADP production using the ADP-Glo™ Kinase Assay kit (Promega) following the manufacturers instructions. The kinase reaction was performed using the following conditions: Buffer: 40 mM Tris pH 7.5, 20 mM MgCl2, 0.1 mg/ml BSA and 50 uM DTT. Final reaction mix contained 0.1 nM CDC7/DBF4, 1 uM ATP and 10 uM PDKtide. The kinase reaction time was 4 h. The ADP-Glo signal was measured using an EnVision plate reader (PerkinELmer).
Percent inhibition of CDC7 kinase activity was calculated based on the following formula: […]
SSample: the signal of compounds SHigh ctrl: the signal of high control (DMSO) SLow Ctrl: the signal of low control (positive control CDC7 inhibitor)

[1] = 0.1 nM CDC7/DBF4, 1 uM ATP, read-out: CDC7 ADP-Glo PDKtide IC50
[2] = CDC7 ADP-Glo PDKtide IC50, 0.1 nM CDC7/DBF4, 1 uM ATP

T1 sequence (O00311 whole entry): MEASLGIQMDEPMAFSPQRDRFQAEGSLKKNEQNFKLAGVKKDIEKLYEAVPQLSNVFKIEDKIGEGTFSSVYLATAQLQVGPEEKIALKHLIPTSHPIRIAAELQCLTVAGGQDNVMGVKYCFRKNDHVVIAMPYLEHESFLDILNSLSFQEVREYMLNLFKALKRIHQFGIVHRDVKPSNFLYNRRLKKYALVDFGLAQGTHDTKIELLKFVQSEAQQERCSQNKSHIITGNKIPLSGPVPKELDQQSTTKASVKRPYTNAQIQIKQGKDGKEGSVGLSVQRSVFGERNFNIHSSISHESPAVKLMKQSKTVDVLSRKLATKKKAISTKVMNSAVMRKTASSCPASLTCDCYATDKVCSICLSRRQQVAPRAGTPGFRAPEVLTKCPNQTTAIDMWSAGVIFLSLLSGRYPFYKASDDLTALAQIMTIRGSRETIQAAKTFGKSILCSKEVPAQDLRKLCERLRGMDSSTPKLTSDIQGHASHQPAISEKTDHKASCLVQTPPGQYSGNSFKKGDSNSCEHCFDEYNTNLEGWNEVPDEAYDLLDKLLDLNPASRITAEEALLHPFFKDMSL
T1 sequence (Q9UBU7 whole entry partner): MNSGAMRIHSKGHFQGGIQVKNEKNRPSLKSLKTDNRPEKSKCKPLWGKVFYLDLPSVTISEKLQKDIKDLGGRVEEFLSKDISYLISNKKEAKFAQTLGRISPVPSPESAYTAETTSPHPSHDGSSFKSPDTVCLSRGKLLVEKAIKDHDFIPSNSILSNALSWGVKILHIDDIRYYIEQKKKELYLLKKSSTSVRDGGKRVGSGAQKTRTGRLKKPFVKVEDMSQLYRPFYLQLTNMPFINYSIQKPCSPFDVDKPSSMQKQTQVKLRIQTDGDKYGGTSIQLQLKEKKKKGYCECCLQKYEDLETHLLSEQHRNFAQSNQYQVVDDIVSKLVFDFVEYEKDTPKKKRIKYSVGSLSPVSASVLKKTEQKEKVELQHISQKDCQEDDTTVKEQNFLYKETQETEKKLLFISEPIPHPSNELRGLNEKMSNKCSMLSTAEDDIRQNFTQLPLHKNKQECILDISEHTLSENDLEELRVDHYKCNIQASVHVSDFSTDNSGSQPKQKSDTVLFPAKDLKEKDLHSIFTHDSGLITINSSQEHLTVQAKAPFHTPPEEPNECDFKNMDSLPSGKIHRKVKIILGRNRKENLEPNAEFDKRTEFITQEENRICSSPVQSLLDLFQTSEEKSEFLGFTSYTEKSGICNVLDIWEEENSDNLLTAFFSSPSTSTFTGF

| Structure (SMILES) | pIC50 [1] | pIC50 [2] |
| --- | --- | --- |
| CC1(C)NC(=O)c2sc(-c3ccnc4ccoc34)c3c2N1CCO3 [Compound 7, 2-(furo[3,2-b]pyridin-7-yl)-6,6-dimethyl-4,5,6,7-tetrahydro-8H-3-oxa-1-thia-5a,7-diazaacenaphthylen-8-one] | < 8.00 |  |
| CC1(C)NC(=O)c2sc(-c3ccnc4[nH]ncc34)c3c2N1CCO3 [Compound 8, 6,6-dimethyl-2-(1H-pyrazolo[3,4-b]pyridin-4-yl)-4,5,6,7-tetrahydro-8H-3-oxa-1-thia-5a,7-diazaacenaphthylen-8-one] | 8.00 to 9.00 |  |
| CC1(C)NC(=O)c2sc(-c3c[nH]c4ncccc34)c3c2N1CCO3 [Compound 9, 6,6-dimethyl-2-(1H-pyrrolo[2,3-b]pyridin-3-yl)-4,5,6,7-tetrahydro-8H-3-oxa-1-thia-5a,7-diazaacenaphthylen-8-one] | 8.00 to 9.00 |  |
| CC1(C)NC(=O)c2sc(-c3c[nH]c4ncc(Cl)cc34)c3c2N1CCO3 [Compound 10, 2-(5-chloro-1H-pyrrolo[2,3-b]pyridin-3-yl)-6,6-dimethyl-4,5,6,7-tetrahydro-8H-3-oxa-1-thia-5a,7-diazaacenaphthylen-8-one] | 8.00 to 9.00 |  |
| CC1(C)NC(=O)c2sc(-c3ccnc(N)n3)c3c2N1CCO3 [Compound 11, 2-(2-aminopyrimidin-4-yl)-6,6-dimethyl-4,5,6,7-tetrahydro-8H-3-oxa-1-thia-5a,7-diazaacenaphthylen-8-one] | 8.00 to 9.00 |  |
| CC1(C)NC(=O)c2sc(-c3cn[nH]c3)c3c2N1CCO3 [Compound 12, 6,6-dimethyl-2-(1H-pyrazol-4-yl)-4,5,6,7-tetrahydro-8H-3-oxa-1-thia-5a,7-diazaacenaphthylen-8-one] | > 9.00 |  |
| CC1(C)NC(=O)c2sc(-c3ccnc(N)c3)c3c2N1CCO3 [Compound 13, 2-(2-aminopyridin-4-yl)-6,6-dimethyl-4,5,6,7-tetrahydro-8H-3-oxa-1-thia-5a,7-diazaacenaphthylen-8-one] | 8.00 to 9.00 |  |
| CC1(C)NC(=O)c2sc(-c3ccnc4[nH]ccc34)c3c2N1CCO3 [Compound 14, 6,6-dimethyl-2-(1H-pyrrolo[2,3-b]pyridin-4-yl)-4,5,6,7-tetrahydro-8H-3-oxa-1-thia-5a,7-diazaacenaphthylen-8-one] | 8.00 to 9.00 |  |
| C[C@H]1CN2CCOc3c(-c4ccncc4)sc(c32)C(=O)N1 [Compound 15, (S)-7-methyl-2-(pyridin-4-yl)-4,5,7,8-tetrahydro-3-oxa-1-thia-5a,8-diazabenzo[cd]azulen-9(6H)-one] | > 9.00 |  |
| Cc1n[nH]cc1-c1sc2c3c1OCCN3C[C@H](C)NC2=O [Compound 17] | 8.00 to 9.00 |  |
| C[C@H]1CN2CCOc3c(-c4ccnc5[nH]ccc45)sc(c32)C(=O)N1 [Compound 18, (S)-7-methyl-2-(1H-pyrrolo[2,3-b]pyridin-4-yl)-4,5,7,8-tetrahydro-3-oxa-1-thia-5a,8-diazabenzo[cd]azulen-9(6H)-one] | > 9.00 |  |
| C[C@H]1CN2C(=O)COc3c(-c4cn[nH]c4)sc(c32)C(=O)N1 [Compound 20, (S)-7-methyl-2-(1H-pyrazol-4-yl)-7,8-dihydro-3-oxa-1-thia-5a,8-diazabenzo[cd]azulene-5,9(4H,6H)-dione] | > 9.00 |  |
| O=C1N[C@H](C2CCC2)CN2C(=O)COc3c(-c4cn[nH]c4)sc1c32 [Compound 21, (R)-7-cyclobutyl-2-(1H-pyrazol-4-yl)-7,8-dihydro-3-oxa-1-thia-5a,8-diazabenzo[cd]azulene-5,9(4H,6H)-dione] |  | 8.00 to 9.00 |
| C[C@@H]1CNC(=O)c2sc(-c3ccncc3)c3c2N1C(=O)CO3 [Compound 22, (R)-6-methyl-2-(pyridin-4-yl)-7,8-dihydro-3-oxa-1-thia-5a,8-diazabenzo[cd]azulene-5,9(4H,6H)-dione] | 8.00 to 9.00 |  |
| O=C1N[C@@H](C2CCC2)C(=O)N2CCOc3c(-c4cn[nH]c4)sc1c32 [Compound 23, (S)-7-cyclobutyl-2-(1H-pyrazol-4-yl)-4,5,7,8-tetrahydro-3-oxa-1-thia-5a,8-diazabenzo[cd] azulene-6,9-dione] |  | < 8.00 |
| C[C@H]1CNC(=O)c2sc(-c3ccncc3)c3c2N1CCO3 [Compound 24, (S)-6-methyl-2-(pyridin-4-yl)-4,5,7,8-tetrahydro-3-oxa-1-thia-5a,8-diazabenzo[cd]azulen-9(6H)-one] | 8.00 to 9.00 |  |
| C[C@H]1CNC(=O)c2sc(-c3cn[nH]c3)c3c2N1CCO3 [Compound 25, (S)-6-methyl-2-(1H-pyrazol-4-yl)-4,5,7,8-tetrahydro-3-oxa-1-thia-5a,8-diazabenzo[cd]azulen-9(6H)-one] | > 9.00 |  |

| Structure (SMILES) | pIC50 [1] | pIC50 [2] |
| --- | --- | --- |
| O=C1NCC(C2CCOCC2)N2CCOc3c(-c4cn[nH]c4)sc1c32 (stereo not shown) [Compound 26, 2-(1H-pyrazol-4-yl)-6-(tetrahydro-2H-pyran-4-yl)-4,5,7,8-tetrahydro-3-oxa-1-thia-5a,8-diazabenzo[cd]azulen-9(6H)-one] | > 9.00 |  |
| C[C@H]1CN2C(=O)CCc3c(-c4cn[nH]c4)sc(c32)C(=O)N1 [Compound 29, (S)-7-methyl-2-(1H-pyrazol-4-yl)-3,4,7,8-tetrahydro-5H-1-thia-5a,8-diazabenzo[cd]azulene-5,9(6H)-dione] | 8.00 to 9.00 |  |
| C[C@H]1CN2CCCc3c(-c4ccncc4)sc(c32)C(=O)N1 [Compound 31, (S)-7-methyl-2-(pyridin-4-yl)-4,5,7,8-tetrahydro-3H-1-thia-5a,8-diazabenzo[cd]azulen-9(6H)-one] | 8.00 to 9.00 |  |
| O=C1NC[C@@H](CO)N2CCOc3c(-c4cn[nH]c4)sc1c32 [Compound 34, (S)-6-(hydroxymethyl)-2-(1H-pyrazol-4-yl)-4,5,7,8-tetrahydro-3-oxa-1-thia-5a,8-diazabenzo[cd]azulen-9(6H)-one] | > 9.00 |  |
| O=C1NC[C@H](COCc2ccccc2)N2CCOc3c(-c4cn[nH]c4)sc1c32 [Compound 35, (R)-6-((benzyloxy)methyl)-2-(1H-pyrazol-4-yl)-4,5,7,8-tetrahydro-3-oxa-1-thia-5a,8-diazabenzo[cd]azulen-9(6H)-one] | 8.00 to 9.00 |  |
| O=C1NC[C@H](CN2CCC2)N2CCOc3c(-c4cn[nH]c4)sc1c32 [Compound 36, (R)-6-(azetidin-1-ylmethyl)-2-(1H-pyrazol-4-yl)-4,5,7,8-tetrahydro-3-oxa-1-thia-5a,8-diazabenzo[cd]azulen-9(6H)-one] | 8.00 to 9.00 |  |
| CNC[C@H]1CNC(=O)c2sc(-c3cn[nH]c3)c3c2N1CCO3 [Compound 37, (S)-6-((methylamino)methyl)-2-(1H-pyrazol-4-yl)-4,5,7,8-tetrahydro-3-oxa-1-thia-5a,8-diazabenzo[cd]azulen-9(6H)-one] | > 9.00 |  |
| O=C1N[C@@H](CN2CCC2)CN2CCOc3c(-c4cn[nH]c4)sc1c32 [Compound 40, (S)-7-(azetidin-1-ylmethyl)-2-(1H-pyrazol-4-yl)-4,5,7,8-tetrahydro-3-oxa-1-thia-5a,8-diazabenzo[cd]azulen-9(6H)-one] | 8.00 to 9.00 |  |
| Cc1cnn(C[C@H]2CNC(=O)c3sc(-c4cn[nH]c4)c4c3N2CCO4)c1 [Compound 42, (R)-6-((4-methyl-1H-pyrazol-1-yl)methyl)-2-(1H-pyrazol-4-yl)-4,5,7,8-tetrahydro-3-oxa-1-thia-5a,8-diazabenzo[cd]azulen-9(6H)-one] | < 8.00 |  |
| Cc1ccn(C[C@H]2CN3CCOc4c(-c5cn[nH]c5)sc(c43)C(=O)N2)n1 [Compound 43, (R)-7-((3-methyl-1H-pyrazol-1-yl)methyl)-2-(1H-pyrazol-4-yl)-4,5,7,8-tetrahydro-3-oxa-1-thia-5a,8-diazabenzo[cd]azulen-9(6H)-one] | > 9.00 |  |
| Cc1ccnn1C[C@H]1CN2CCOc3c(-c4cn[nH]c4)sc(c32)C(=O)N1 [Compound 44, (R)-7-((5-methyl-1H-pyrazol-1-yl)methyl)-2-(1H-pyrazol-4-yl)-4,5,7,8-tetrahydro-3-oxa-1-thia-5a,8-diazabenzo[cd]azulen-9(6H)-one] | > 9.00 |  |
| Cc1cnn(C[C@H]2COc3c(-c4cn[nH]c4)sc4c3N2CCNC4=O)c1 [Compound 45, (S)-5-((4-methyl-1H-pyrazol-1-yl)methyl)-2-(1H-pyrazol-4-yl)-4,5,7,8-tetrahydro-3-oxa-1-thia-5a,8-diazabenzo[cd]azulen-9(6H)-one] | 8.00 to 9.00 |  |
| O=C1NC[C@@H](CN2CCC2)N2CCOc3c(-c4cn[nH]c4)sc1c32 [Compound 46, (S)-6-(azetidin-1-ylmethyl)-2-(1H-pyrazol-4-yl)-4,5,7,8-tetrahydro-3-oxa-1-thia-5a,8-diazabenzo[cd]azulen-9(6H)-one] | 8.00 to 9.00 |  |
| CNC[C@H]1CN2CCOc3c(-c4cn[nH]c4)sc(c32)C(=O)N1 [Compound 47, (S)-7-((methylamino)methyl)-2-(1H-pyrazol-4-yl)-4,5,7,8-tetrahydro-3-oxa-1-thia-5a,8-diazabenzo[cd]azulen-9(6H)-one] | > 9.00 |  |
| O=C1N[C@@H](CO)CN2CCOc3c(-c4cn[nH]c4)sc1c32 [Compound 48, (R)-7-(hydroxymethyl)-2-(1H-pyrazol-4-yl)-4,5,7,8-tetrahydro-3-oxa-1-thia-5a,8-diazabenzo[cd]azulen-9(6H)-one] | > 9.00 |  |
| Cn1ccc(C2CN3CCOc4c(-c5cn[nH]c5)sc(c43)C(=O)N2)n1 (stereo not shown) [Compound 52] | 8.00 to 9.00 |  |
| COC(=O)[C@@H]1CN2C(=O)COc3c(-c4cn[nH]c4)sc(c32)C(=O)N1 [Compound 53, Methyl (S)-5,9-dioxo-2-(1H-pyrazol-4-yl)-4,5,6,7,8,9-hexahydro-3-oxa-1-thia-5a,8-diazabenzo[cd]azulene-7-carboxylate] | 8.00 to 9.00 |  |
